PMC3110694 (Science (New York, N.Y.), 2010)
Entries after “also recorded” stand apart in the source; their conditions may differ.

Assays:
Balb/cJ mice = assay: CPT-11-induced delayed diarrhea and intestinal damage in mice
E. coli β-glucuronidase = E. coli β-glucuronidase (Escherichia coli, UniProt P05804); assay: E. coli β-glucuronidase in vitro inhibition assay; format: biochemical; conditions: errors SD, N = 3
[1] = target: β-glucuronidase activity in cultured E. coli cells (Escherichia coli, UniProt P05804); assay: β-glucuronidase activity in living E. coli cells; format: cell-based
Sequence of β-glucuronidase activity in cultured E. coli cells (P05804 whole entry): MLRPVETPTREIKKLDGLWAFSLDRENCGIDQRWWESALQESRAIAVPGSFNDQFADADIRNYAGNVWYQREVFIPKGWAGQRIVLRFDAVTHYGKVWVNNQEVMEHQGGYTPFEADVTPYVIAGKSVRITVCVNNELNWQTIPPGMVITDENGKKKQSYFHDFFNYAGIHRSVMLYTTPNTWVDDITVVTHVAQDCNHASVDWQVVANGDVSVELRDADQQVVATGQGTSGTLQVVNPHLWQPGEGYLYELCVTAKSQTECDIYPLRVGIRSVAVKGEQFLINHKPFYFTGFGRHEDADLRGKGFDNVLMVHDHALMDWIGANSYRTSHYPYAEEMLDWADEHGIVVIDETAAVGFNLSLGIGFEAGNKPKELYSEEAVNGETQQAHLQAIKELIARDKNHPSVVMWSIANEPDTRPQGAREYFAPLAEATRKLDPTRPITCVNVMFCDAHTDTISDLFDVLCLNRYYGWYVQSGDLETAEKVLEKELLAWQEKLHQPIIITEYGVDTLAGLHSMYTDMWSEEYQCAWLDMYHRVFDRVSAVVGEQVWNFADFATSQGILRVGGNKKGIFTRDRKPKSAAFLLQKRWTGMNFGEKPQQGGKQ

Sequence of E. coli β-glucuronidase (P05804 whole entry): as above

Row | Compound | diarrhea and bloody diarrhea, CPT-11 only (Balb/cJ mice; group 3: CPT-11 50 mg per kg i.p. once daily, no Inhibitor 1, days 8 to 10) | colonic tissue histology, CPT-11 only (Balb/cJ mice; group 3: CPT-11 only) | euthanasia, CPT-11 only (Balb/cJ mice; group 3: CPT-11 only, by day 11) | IC50 (E. coli β-glucuronidase) [µM] | Ki (E. coli β-glucuronidase) [µM] | EC50 ([1]; E. coli cell-based, errors SD, N = 3) | effect on β-glucuronidase activity in cultured E. coli cells ([1]; cultured E. coli, listed as GDL)
1 | CCc1c2c(nc3ccc(OC(=O)N4CCC(N5CCCCC5)CC4)cc13)-c1cc3c(c(=O)n1C2)COC(=O)[C@]3(O)CC [CPT-11, irinotecan, reference compound] | all the animals; also recorded: produced bloody diarrhea starting after 8 days and peaking at 10 days | destroyed these tissues; also recorded: highly disrupted tissues | all the group 3 animals had to be euthanized | – | – | – | –
2 | glucaro-δ-lactam [reference compound] | – | – | – | 26.4 ± 0.483 | 7.75 ± 0.475 | N.E. | did not disrupt β-glucuronidase activity; also recorded: no effect
